Active and inactive are the calls of the source. No rule for the calls is given here.
Tested on: CCRIS mutagenicity, Ames/micronucleus/aberration tests
Assay: CCRIS mutagenicity studies
[1] = Test System: AMES SALMONELLA TYPHIMURIUM, Strain/Indicator: TA97A, Metabolic Activation: NONE, Method: STANDARD PLATE
[2] = Test System: AMES SALMONELLA TYPHIMURIUM, Strain/Indicator: TA98, Metabolic Activation: NONE, Method: STANDARD PLATE
[3] = Test System: AMES SALMONELLA TYPHIMURIUM, Strain/Indicator: TA98, Metabolic Activation: RAT, LIVER, S-9, AROCLOR 1254, Method: STANDARD PLATE
[4] = Test System: AMES SALMONELLA TYPHIMURIUM, Strain/Indicator: TA100, Metabolic Activation: NONE, Method: STANDARD PLATE
[5] = Test System: AMES SALMONELLA TYPHIMURIUM, Strain/Indicator: TA100, Metabolic Activation: RAT, LIVER, S-9, AROCLOR 1254, Method: STANDARD PLATE
[6] = Test System: AMES SALMONELLA TYPHIMURIUM, Strain/Indicator: TA102, Metabolic Activation: NONE, Method: STANDARD PLATE
[7] = Test System: AMES SALMONELLA TYPHIMURIUM, Strain/Indicator: TA102, Metabolic Activation: RAT, LIVER, S-9, AROCLOR 1254, Method: STANDARD PLATE
[8] = Test System: AMES SALMONELLA TYPHIMURIUM, Strain/Indicator: TA98, Metabolic Activation: HAMSTER, LIVER, S-9, AROCLOR 1254 (10%), Method: PREINCUBATION
[9] = Test System: AMES SALMONELLA TYPHIMURIUM, Strain/Indicator: TA98, Metabolic Activation: NONE, Method: PREINCUBATION
[10] = Test System: AMES SALMONELLA TYPHIMURIUM, Strain/Indicator: TA98, Metabolic Activation: RAT, LIVER, S-9, AROCLOR 1254 (10%), Method: PREINCUBATION
[11] = Test System: AMES SALMONELLA TYPHIMURIUM, Strain/Indicator: TA100, Metabolic Activation: HAMSTER, LIVER, S-9, AROCLOR 1254 (10%), Method: PREINCUBATION
[12] = Test System: AMES SALMONELLA TYPHIMURIUM, Strain/Indicator: TA100, Metabolic Activation: NONE, Method: PREINCUBATION
[13] = Test System: AMES SALMONELLA TYPHIMURIUM, Strain/Indicator: TA100, Metabolic Activation: RAT, LIVER, S-9, AROCLOR 1254 (10%), Method: PREINCUBATION
[14] = Test System: AMES SALMONELLA TYPHIMURIUM, Strain/Indicator: TA1535, Metabolic Activation: HAMSTER, LIVER, S-9, AROCLOR 1254 (10%), Method: PREINCUBATION
[15] = Test System: AMES SALMONELLA TYPHIMURIUM, Strain/Indicator: TA1535, Metabolic Activation: NONE, Method: PREINCUBATION
[16] = Test System: AMES SALMONELLA TYPHIMURIUM, Strain/Indicator: TA1535, Metabolic Activation: RAT, LIVER, S-9, AROCLOR 1254 (10%), Method: PREINCUBATION
[17] = Test System: AMES SALMONELLA TYPHIMURIUM, Strain/Indicator: TA1537, Metabolic Activation: HAMSTER, LIVER, S-9, AROCLOR 1254 (10%), Method: PREINCUBATION
[18] = Test System: AMES SALMONELLA TYPHIMURIUM, Strain/Indicator: TA1537, Metabolic Activation: NONE, Method: PREINCUBATION
[19] = Test System: AMES SALMONELLA TYPHIMURIUM, Strain/Indicator: TA1537, Metabolic Activation: RAT, LIVER, S-9, AROCLOR 1254 (10%), Method: PREINCUBATION
[20] = Test System: AMES SALMONELLA TYPHIMURIUM, Strain/Indicator: TA1535, Metabolic Activation: NONE, Method: STANDARD PLATE

For `Cc1ccc(C)c(C)c1`, which mutagenic call [1] is on record?
Its mutagenic call is “inactive; negative”.

And the mutagenic call (Test System: AMES SALMONELLA TYPHIMURIUM, Strain/Indicator: TA97A, Metabolic Activation: RAT, LIVER, S-9, AROCLOR 1254, Method: STANDARD PLATE)?
The mutagenic call was “inactive; negative”.

What about the mutagenic call [2] of the same compound?
Its mutagenic call is “inactive; negative”.

What about the mutagenic call [3] of the same compound?
The mutagenic call was “inactive; negative”.

And the mutagenic call [4]?
Its mutagenic call is “inactive; negative”.

What about the mutagenic call [5] of the same compound?
Its mutagenic call is “inactive; negative”.

And the mutagenic call [6]?
Its mutagenic call is “inactive; negative”.

What about the mutagenic call [7] of the same compound?
Its mutagenic call is “inactive; negative”.

For `ClC1=C(Cl)[C@]2(Cl)[C@@H]3[C@H]4C[C@H]([C@@H]5O[C@H]45)[C@@H]3[C@@]1(Cl)C2(Cl)Cl`, which mutagenic call (Test System: AMES SALMONELLA TYPHIMURIUM, Strain/Indicator: TA97, Metabolic Activation: NONE, Method: STANDARD PLATE) is on record?
The mutagenic call was “inactive; negative”.

What about the mutagenic call (Test System: AMES SALMONELLA TYPHIMURIUM, Strain/Indicator: TA97, Metabolic Activation: RAT, LIVER, S-9, AROCLOR 1254, Method: STANDARD PLATE) of the same compound?
The mutagenic call was “inactive; negative”.

And the mutagenic call [8]?
The mutagenic call was “inactive; negative”.

And the mutagenic call [9]?
Its mutagenic call is “inactive; negative”.

And the mutagenic call [2]?
The mutagenic call was “inactive; negative”.

What about the mutagenic call [10] of the same compound?
The mutagenic call was “inactive; negative”.

And the mutagenic call [3]?
The mutagenic call was “inactive; negative”.

What about the mutagenic call [11] of the same compound?
Its mutagenic call is “inactive; negative”.

And the mutagenic call [12]?
The mutagenic call was “inactive; negative”.

What about the mutagenic call [4] of the same compound?
Its mutagenic call is “inactive; negative”.

And the mutagenic call [13]?
The mutagenic call was “inactive; negative”.

And the mutagenic call [5]?
Its mutagenic call is “inactive; negative”.

What about the mutagenic call [6] of the same compound?
The mutagenic call was “inactive; negative”.

And the mutagenic call [7]?
The mutagenic call was “inactive; negative”.

What about the mutagenic call [14] of the same compound?
The mutagenic call was “inactive; negative”.

And the mutagenic call [15]?
Its mutagenic call is “inactive; negative”.

What about the mutagenic call [16] of the same compound?
Its mutagenic call is “inactive; negative”.

What about the mutagenic call [17] of the same compound?
Its mutagenic call is “inactive; negative”.

And the mutagenic call [18]?
Its mutagenic call is “inactive; negative”.

And the mutagenic call [19]?
Its mutagenic call is “inactive; negative”.

What about the mutagenic call (Test System: MOUSE LYMPHOMA, Strain/Indicator: L5178Y (TK+/TK-), Metabolic Activation: NONE, Method: SUSPENSION/PLATE) of the same compound?
Its mutagenic call is “inactive; negative”.

And the mutagenic call (Test System: MOUSE LYMPHOMA, Strain/Indicator: L5178Y (TK+/TK-), Metabolic Activation: RAT, LIVER, S-9, AROCLOR 1254, Method: SUSPENSION/PLATE)?
Its mutagenic call is “inactive; negative”.

Which mutagenic call [9] does the source give for `O=[N+]([O-])c1cc(-c2ccc(O)c([N+](=O)[O-])c2)ccc1O` here?
The mutagenic call was “inactive; negative”.

What does the source list for `[N-]=[N+]=CC(=O)NCC(N)=O`?
mutagenic call [20]: active; positive; mutagenic call (Test System: UDS RODENT CELLS, Strain/Indicator: THY INCORP (NON-S-PHASE), Metabolic Activation: NONE, Method: AUTORADIOGRAPHY): active; positive

How did the mutagenic call [9] turn out when `O=C(Cl)CCc1ccccc1` was run?
The mutagenic call was “active; positive”.

What about the mutagenic call (Test System: AMES SALMONELLA TYPHIMURIUM, Strain/Indicator: TA98, Metabolic Activation: RAT LIVER S-9, PCB, Method: PREINCUBATION) of the same compound?
Its mutagenic call is “active; positive”.

And the mutagenic call [12]?
Its mutagenic call is “active; positive”.

And the mutagenic call (Test System: AMES SALMONELLA TYPHIMURIUM, Strain/Indicator: TA100, Metabolic Activation: RAT LIVER S-9, PCB, Method: PREINCUBATION)?
Its mutagenic call is “active; positive”.

And the mutagenic call (Test System: AMES SALMONELLA TYPHIMURIUM, Strain/Indicator: TA104, Metabolic Activation: NONE, Method: PREINCUBATION)?
The mutagenic call was “active; positive”.

And the mutagenic call (Test System: AMES SALMONELLA TYPHIMURIUM, Strain/Indicator: TA104, Metabolic Activation: RAT LIVER S-9, PCB, Method: PREINCUBATION)?
Its mutagenic call is “active; positive”.

And the mutagenic call (Test System: E.COLI, Strain/Indicator: WP2 UVRA, Metabolic Activation: NONE, Method: PREINCUBATION)?
The mutagenic call was “inactive; negative”.

What about the mutagenic call (Test System: E.COLI, Strain/Indicator: WP2 UVRA, Metabolic Activation: RAT LIVER S-9, PCB, Method: PREINCUBATION) of the same compound?
Its mutagenic call is “active; positive”.

With `c1ccc(P(c2ccccc2)c2ccccc2)cc1` as the compound, how does the mutagenic call [8] read?
The mutagenic call was “inactive; negative”.

What about the mutagenic call [9] of the same compound?
Its mutagenic call is “inactive; negative”.

And the mutagenic call [10]?
The mutagenic call was “inactive; negative”.

What about the mutagenic call [11] of the same compound?
Its mutagenic call is “inactive; negative”.

And the mutagenic call [12]?
Its mutagenic call is “inactive; negative”.

What about the mutagenic call [13] of the same compound?
Its mutagenic call is “inactive; negative”.

What about the mutagenic call [14] of the same compound?
The mutagenic call was “inactive; negative”.

And the mutagenic call [15]?
Its mutagenic call is “inactive; negative”.

What about the mutagenic call [16] of the same compound?
Its mutagenic call is “inactive; negative”.

What about the mutagenic call [17] of the same compound?
Its mutagenic call is “inactive; negative”.

What about the mutagenic call [18] of the same compound?
The mutagenic call was “inactive; negative”.

And the mutagenic call [19]?
The mutagenic call was “inactive; negative”.

`O=Nn1cc(CCO)c2ccccc21` was tested. Which mutagenic call [1] did it give?
Its mutagenic call is “active; positive”.

What about the mutagenic call [2] of the same compound?
Its mutagenic call is “active; positive”.

And the mutagenic call [4]?
Its mutagenic call is “active; positive”.

What about the mutagenic call [20] of the same compound?
The mutagenic call was “active; positive”.

And the mutagenic call (Test System: AMES SALMONELLA TYPHIMURIUM, Strain/Indicator: TA1537, Metabolic Activation: NONE, Method: STANDARD PLATE)?
Its mutagenic call is “active; positive”.

Which mutagenic call (End Point: In vitro micronucleus, Test System: Human peripheral blood lymphocytes, Metabolic Activation: None) does the source give for `N[C@@H](Cc1cc(I)c(Oc2cc(I)c(O)c(I)c2)c(I)c1)C(=O)O` here?
The mutagenic call was “inactive; negative”.

`CCOC(=O)CNC(=O)C(C)(C)Br` was tested. Which mutagenic call (Test System: AMES SALMONELLA TYPHIMURIUM, Strain/Indicator: TA100, Metabolic Activation: MOUSE, LIVER, S-9, AROCLOR 1254, Method: STANDARD PLATE) did it give?
Its mutagenic call is “inactive; negative”.

What about the mutagenic call [4] of the same compound?
Its mutagenic call is “inactive; negative”.

What does the source list for `C[n+]1c2ccccc2cc2c(N)cccc21`?
mutagenic call [15]: inactive; negative; mutagenic call (Test System: AMES SALMONELLA TYPHIMURIUM, Strain/Indicator: TA1535, Metabolic Activation: RAT, LIVER, S-9, TETRACHLOROBIPHENYL, Method: PREINCUBATION): inactive; negative; mutagenic call [18]: active; positive; mutagenic call (Test System: AMES SALMONELLA TYPHIMURIUM, Strain/Indicator: TA1537, Metabolic Activation: RAT, LIVER, S-9, TETRACHLOROBIPHENYL, Method: PREINCUBATION): active; positive; mutagenic call (Test System: AMES SALMONELLA TYPHIMURIUM, Strain/Indicator: TA1538, Metabolic Activation: NONE, Method: PREINCUBATION): inactive; negative; mutagenic call (Test System: AMES SALMONELLA TYPHIMURIUM, Strain/Indicator: TA1538, Metabolic Activation: RAT, LIVER, S-9, TETRACHLOROBIPHENYL, Method: PREINCUBATION): inactive; negative; mutagenic call (Test System: AMES SALMONELLA TYPHIMURIUM, Strain/Indicator: TA1977, Metabolic Activation: NONE, Method: PREINCUBATION): active; positive
